Source: a melting point compilation (Tetko et al.; mined from patent text by program, amines drawn as free bases though some values may be those of a salt)

Row | SMILES | melting point
1 | CC(=O)C1(O)CCC2C3CC(C)C4=CC(=O)CCC4(C)C3(F)CCC21C (centres undefined) | 232 to 235 °C
2 | CN(C)C(=O)Nc1ccc(-c2c[nH]c(=O)cn2)cc1 | 256 to 260 °C
3 | CC(Oc1ccc(F)cc1)C(=O)O (centres undefined) | 113 to 115 °C
4 | C=C(CBr)S(=O)(=O)C(C)(C)C | 40.5 to 42 °C
5 | CCOC(=O)c1cn(-c2cc(NC(=O)OC(C)(C)C)c(F)cc2F)c2c(C)c(F)c(F)c(C)c2c1=O | 141 to 142 °C
6 | COc1c(F)ccc2c1C(C)(C)CC(O)(C(F)(F)F)C2Nc1cccc2c(=O)n(C)ncc12 (centres undefined) | 262 to 263 °C
7 | Cc1cccc(C(=O)N2CC2C#N)n1 (centres undefined) | 120 to 122 °C
8 | Cc1c(C(=O)Nc2ccc(N3CCC(N4CCOCC4)CC3)c(C#N)c2)cnn1-c1ccc(F)c(Cl)c1 | 266 °C
9 | NCc1c(Nc2ccccc2)cccc1-c1ccccc1 | 115 to 116 °C
10 | CCCCCCCCCCCCCCOC(=O)c1cc(Cl)c(N2N=C(Nc3cc(N4CCCC4=O)ccc3Cl)CC2=O)c(Cl)c1 | 143 to 146 °C
11 | CSc1cc(OCCC[Si](C)(C)C)c(Cl)cc1NC=NC#N | 94 to 96 °C
12 | CC(=O)N1C(C(=O)NCCO[N+](=O)[O-])CSC1c1ccccc1 (centres undefined) | 103 to 105 °C
13 | CCCc1c(O)c(C(C)=O)cc(I)c1OCC(O)COc1ccc2c(=O)cc(C(=O)O)oc2c1CCC (centres undefined) | 173 to 176 °C
14 | N#CC1(Nc2ccccc2)CCCCC1 | 67 to 69 °C
15 | COc1ccc(C2=CCN(Cc3n[nH]c4ccccc34)CC2)cc1 | 157 to 159 °C
16 | COc1ccc(-c2ccc(N3CCCN(c4ccc(-c5ccc(OC)c(OC)c5)cn4)CC3)nc2)cc1OC | 190 to 192 °C
17 | O=C1NCCc2c1cc1n2CCCC1 | 195 to 197 °C

Row | SMILES | melting point
18 | COC(=O)c1ccc2c(c1C)SCCC2(C)C | 63 °C
19 | O=C(c1ccccc1)N1CCN(c2c(Cl)cncc2Cl)CC1 | 132 to 134 °C
20 | O=c1c(-c2cccc(F)c2)coc2cc(O)c(O)cc12 | 277 °C
21 | CCCCCCCCCCCCc1nnn(C(CCCCC)C(=O)Nc2c(OC)cc(OC)cc2OC)n1 (centres undefined) | 152 to 155 °C
22 | Cn1nc(Oc2ccc([N+](=O)[O-])c(N)c2)cc1C(F)(F)F | 91 to 92 °C
23 | N#Cc1cc(F)c(N)c(Br)c1F | 106 to 108 °C
24 | CC1(Br)CN(C2SCN(c3cccc(OC(F)(F)F)c3)C2=O)C1=O (centres undefined) | 111 to 113 °C
25 | N#Cc1ccc(C(F)(F)F)cc1Sc1ccccc1N | 102 to 104 °C
26 | COc1cc(N)c2nccc(C=Cc3cccc(C(F)(F)F)c3)c2c1 | 124 to 126 °C
27 | CN(C(=O)OC(C)(C)C)c1cnc(-c2ccc(Cl)nc2)s1 | 167 to 170 °C
28 | Cc1c[nH]c(=O)c(NC(=O)c2ccccc2F)c1 | 230 to 232 °C
29 | CCOC(=O)C(=O)Nc1cccc([N+](=O)[O-])c1C#N | 111 to 113 °C
30 | COc1cc(C(=O)c2ccccc2F)cc([N+](=O)[O-])c1O | 127 to 129 °C
31 | COC(=O)C(NC(CO)c1ccccc1)C1CC2CCC(C1)N2 (centres undefined) | 124 °C
32 | N#Cc1cnc2c(NC(=O)c3c(Cl)cccc3Cl)cccc2c1CO | 249 to 250 °C
33 | NS(=O)(=O)c1cc(Cl)cc(Cl)c1O | > 225 °C
34 | CC(=O)N1CCC(C(=O)c2ccc(N3CCCCC3)cc2)CC1 | 122 to 125 °C

Second part, the molecule after the results:

Row | melting point | SMILES
35 | 229 to 230 °C | O=C(Nc1ccc(-n2nc(C(F)(F)F)cc2C(F)(F)F)cc1)Nc1ccc([N+](=O)[O-])cc1Cl
36 | 158 °C | O=C(O)CCCc1cc2nc(C(F)(F)F)ccc2n1S(=O)(=O)c1ccc2c(c1)OCCO2
37 | 58 to 67 °C | COC(=O)C1=C(C)NC(C)=C(C(=O)OCC2COC3(CCCC3)O2)C1c1cccc([N+](=O)[O-])c1 (centres undefined)
38 | 100 to 101 °C | O=CC(Cl)=Cc1cccc(Oc2ccc([N+](=O)[O-])c([N+](=O)[O-])c2)c1
39 | 211 to 213 °C | COC(=O)c1ccc2oc(-c3ccccc3OCC(C)OC(=O)c3ccccc3)cc(=O)c2c1 (centres undefined)
40 | 94 to 96 °C | O=C1COc2ccccc2C(=O)C1=CNc1ccccc1
41 | 76 to 78 °C | NC(N)=NC(=O)Cc1c(-c2ccccc2Cl)csc1-c1ccc(Oc2ccccc2)cc1
42 | 137 to 141 °C | Cc1c(Cc2ccc(C(C)C)cc2)c2c(c(C)c1NC(=O)CC(C)(C)C)C(c1ccccc1)CO2 (centres undefined)
43 | 109 to 110 °C | CN1CCOc2ccc(S(=O)(=O)Nc3ccc(CCl)cc3I)cc21
44 | 100 to 102 °C | CCN1c2ncc(CCCc3ccccc3)cc2C(=O)N(C)c2cccnc21
45 | 137 to 139 °C | CCOC(=O)Oc1ccc(S(=O)(=O)N2c3cc(Br)ccc3-n3cccc3[C@@H]2CC)cc1
46 | 162 to 166 °C | CCCc1c(CSc2nnc(NC(=O)CC(=O)OCc3ccc(OC)cc3)s2)ccc(C(C)=O)c1O
47 | 103 to 104 °C | COCCNC(=O)c1cc(F)cc(-c2cccc3cc(Cc4cccc(C(F)(F)F)c4)sc23)c1
48 | 140 to 141 °C | Cc1ccc(OCCN2CCN(c3nc(N)nc(-c4cc(Cl)ccc4Cl)n3)CC2)cc1
49 | 245 °C | CCn1cc(C(=O)NO)c(=O)c2ccc(-c3ccncc3)cc21
50 | 169 to 171 °C | NC(=O)c1cc(OCCNCC(O)c2ccco2)ccc1O (centres undefined)
51 | 115 °C | Clc1cccc(N2CCN(Cc3ccc(-c4ccccc4)s3)CC2)c1
52 | 135 to 137 °C | COc1ccc(COC(=O)C2N(c3c(C)cccc3C)C(=N)C(C)N2c2c(C)cccc2C)cc1 (centres undefined)

Row | melting point | SMILES
53 | 217 to 220 °C | Cc1ccc(C(=O)NCCO)c(Nc2ccc3cn[nH]c3c2)n1
54 | 140 to 141 °C | O=C(Cc1ccc2[nH]cc(CCN3C(=O)c4ccccc4C3=O)c2c1)N1CCOCC1
55 | 111 to 112 °C | CC(=O)c1ccc(OCCCN2CCC(c3noc4cc(F)ccc34)CC2)cc1
56 | 117 to 118 °C | Clc1cccc(Oc2ccc3[nH]ccc3c2)n1
57 | 153 to 155 °C | O=C(O)CCC(=O)c1ccc(-c2cccc(F)c2)cc1
58 | 258 to 259 °C | Cc1cc(-c2nc3cccnn3c2-c2ccnc(NC(=O)c3cccnc3C)c2)ccc1F
59 | 157 to 159 °C | CCCCc1sc2ccccc2c1-c1ccc(-c2ccc(OC(C(=O)O)c3ccccc3)cc2)cc1 (centres undefined)
60 | 109 to 112 °C | Cc1ccc(C(=O)c2c(Cl)cccc2Cl)cc1
61 | 282 to 285 °C | COc1cccc(C(C)c2ccc(-c3cnn4c(O)ncnc34)cc2)c1 (centres undefined)
62 | 262 to 263 °C | Cc1ccc(NS(=O)(=O)c2ccc(Cl)nc2)c2[nH]cc(C#N)c12
63 | 78 to 80 °C | CCOC(=O)[C@H](Cc1ccc(C(F)(F)F)cc1)[C@@H](O)c1ccncc1 (racemic)
64 | 212 to 214 °C | NC(=O)c1cccc(-c2nc(-c3ccccc3)c(-c3nc4ccccc4c(=O)n3-c3ccccc3Cl)s2)c1
65 | 153 to 154 °C | CCN(CC)CCOC(=O)c1cnc2ccn(-c3cccc(Cl)c3)n2c1=O
66 | 110 to 112 °C | CC(C)c1cc(-c2ccc(F)cc2)cc(-c2ccc(F)cc2)c1C=O
67 | 145 to 147 °C | COc1ccc(N2CCN(c3c(C)c(C)c4c(c3C)C(O)(c3ccc(C)cc3)C(C)(C)O4)CC2)cc1 (centres undefined)
68 | 140 to 141 °C | COc1ccc(Sc2ccc(NC(=N)N)cc2)cc1
69 | 162 to 164 °C | COc1ccc2c(c1)Sc1c(cc(OC)c(O)c1Br)N2C(=O)OC(C)OC(C)=O (centres undefined)
